Laboratory results: ChEMBL document CHEMBL1201862, “PubChem BioAssay data set” (2004)
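Five compound concentrations were applied to cells in 96-well plates for 48 hours; endpoints were derived by simple linear interpolation of the resulting dose-response curve. GI50 = concentration required for 50% inhibition of growth.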 Activity calls are given as the source filed them. Cut-off read from the data, not from the text of the source: active = GI50 up to about 1.1 µM and inactive = higher.

How the values were obtained:
Test in all cases: NCI anticancer screen, dose series, 48 h
[1] = tested on: RXF 631
[2] = tested on: SR
[3] = tested on: RXF 393
[4] = tested on: HOP-62
[5] = tested on: UO-31
[6] = tested on: Malme-3M
[7] = tested on: LOX IMVI
[8] = tested on: SF-539
[9] = tested on: SK-MEL-5
[10] = tested on: DMS-273
[11] = tested on: SK-MEL-2
[12] = tested on: HOP-92
[13] = tested on: SF-268
[14] = tested on: SW-620
[15] = tested on: U-251
[16] = tested on: SN12C
[17] = tested on: HL-60
[18] = tested on: KM12
[19] = tested on: LXFL 529
[20] = tested on: HCT-15
[21] = tested on: OVCAR-4
[22] = tested on: K562
[23] = tested on: SNB-78
[24] = tested on: RPMI-8226
[25] = tested on: KM-20L2
[26] = tested on: EKVX
[27] = tested on: UACC-62
[28] = tested on: SNB-75
[29] = tested on: SK-OV-3
[30] = tested on: UACC-257
[31] = tested on: OVCAR-3
[32] = tested on: SK-MEL-28
[33] = tested on: NCI-H522
[34] = tested on: NCI-H226
[35] = tested on: MOLT-4
[36] = tested on: CAKI-1
[37] = tested on: OVCAR-8
[38] = tested on: 786-0
[39] = tested on: HCC 2998
[40] = tested on: HT-29
[41] = tested on: M19-MEL
[42] = tested on: TK-10
[43] = tested on: HOP-18
[44] = tested on: DLD-1
[45] = tested on: DMS-114
[46] = tested on: ACHN
[47] = tested on: NCI-H460
[48] = tested on: A549
[49] = tested on: M14
[50] = tested on: IGROV-1
[51] = tested on: NCI-H23
[52] = tested on: SNB-19
[53] = tested on: HCT-116
[54] = tested on: SF-295
[55] = tested on: CCRF-CEM
[56] = tested on: OVCAR-5
[57] = tested on: COLO 205

CCCCCCCCCC(=O)Oc1cccc2onc(C)c12
GI50 [1]: > 100 µM (inactive) | GI50 [2]: 49 µM (inactive) | GI50 [3]: > 100 µM (inactive) | GI50 [4]: > 100 µM (inactive) | GI50 [5]: 40.8 µM (inactive) | GI50 [6]: > 100 µM (inactive) | GI50 [7]: > 100 µM (inactive) | GI50 [8]: > 100 µM (inactive) | GI50 [9]: > 100 µM (inactive) | GI50 [10]: > 100 µM (inactive) | GI50 [11]: > 100 µM (inactive) | GI50 [12]: > 100 µM (inactive) | GI50 [13]: > 100 µM (inactive) | GI50 [14]: > 100 µM (inactive) | GI50 [15]: > 100 µM (inactive) | GI50 [16]: > 100 µM (inactive) | GI50 [17]: 19.4 µM (inactive) | GI50 [18]: 77.4 µM (inactive) | GI50 [19]: > 100 µM (inactive) | GI50 [20]: > 100 µM | GI50 [21]: > 100 µM (inactive) | GI50 [22]: 73.1 µM (inactive) | GI50 [23]: > 100 µM (inactive) | GI50 [24]: > 100 µM (inactive) | GI50 [25]: > 100 µM (inactive) | GI50 [26]: > 100 µM (inactive) | GI50 [27]: > 100 µM (inactive) | GI50 [28]: > 100 µM (inactive) | GI50 [29]: > 100 µM (inactive) | GI50 [30]: > 100 µM (inactive) | GI50 [31]: > 100 µM (inactive) | GI50 [32]: > 100 µM (inactive) | GI50 [33]: > 100 µM (inactive) | GI50 [34]: 88.9 µM (inactive) | GI50 [35]: 66.8 µM (inactive) | GI50 [36]: > 100 µM (inactive) | GI50 [37]: > 100 µM (inactive) | GI50 [38]: > 100 µM (inactive) | GI50 [39]: 79.1 µM (inactive) | GI50 [40]: > 100 µM (inactive) | GI50 [41]: > 100 µM (inactive) | GI50 [42]: > 100 µM (inactive) | GI50 [43]: > 100 µM (inactive) | GI50 [44]: > 100 µM (inactive) | GI50 [45]: > 100 µM (inactive) | GI50 [46]: > 100 µM (inactive) | GI50 [47]: > 100 µM (inactive) | GI50 [48]: > 100 µM (inactive) | GI50 [49]: > 100 µM (inactive) | GI50 [50]: > 100 µM (inactive) | GI50 [51]: > 100 µM (inactive) | GI50 [52]: > 100 µM (inactive) | GI50 [53]: > 100 µM (inactive) | GI50 [54]: > 100 µM (inactive) | GI50 [55]: > 100 µM (inactive) | GI50 [56]: > 100 µM (inactive) | GI50 [57]: > 100 µM (inactive)
